Data from patent US9469650B2, “Melampomagnolide B derivatives” (BOARD OF TRUSTEES OF THE UNIVERSITY OF ARKANSAS, priority 2013, dated 2016).

Experiments:
OVCAR-3 = assay: panel of 60 human tumor cell lines, growth inhibition (Ovarian Cancer)
K-562 = assay: panel of 60 human tumor cell lines, growth inhibition (Leukemia); settings: for Percent Growth: K-562
HCT-116 = assay: panel of 60 human tumor cell lines, growth inhibition (Colon Cancer); settings: Homo sapiens
BT-549 = assay: panel of 60 human tumor cell lines, growth inhibition (Breast Cancer); settings: Homo sapiens
NCI-H322M = assay: panel of 60 human tumor cell lines, growth inhibition (Non-Small Cell Lung Cancer); settings: Homo sapiens
SNB-75 = assay: panel of 60 human tumor cell lines, growth inhibition (CNS Cancer); settings: Homo sapiens
T-47D = assay: panel of 60 human tumor cell lines, growth inhibition (Breast Cancer); settings: Homo sapiens, T47D
TK-10 = assay: panel of 60 human tumor cell lines, growth inhibition (Renal Cancer); settings: Homo sapiens
A549/ATCC = assay: panel of 60 human tumor cell lines, growth inhibition (Non-Small Cell Lung Cancer); settings: Homo sapiens
SW-620 = assay: panel of 60 human tumor cell lines, growth inhibition (Colon Cancer); settings: Homo sapiens
OVCAR-5 = assay: panel of 60 human tumor cell lines, growth inhibition (Ovarian Cancer)
HCT-15 = assay: panel of 60 human tumor cell lines, growth inhibition (Colon Cancer); settings: Homo sapiens
NCI-H522 = assay: panel of 60 human tumor cell lines, growth inhibition (Non-Small Cell Lung Cancer); settings: Homo sapiens
HT29 = assay: panel of 60 human tumor cell lines, growth inhibition (Colon Cancer); settings: for Percent Growth: HT29
SF-295 = assay: panel of 60 human tumor cell lines, growth inhibition (CNS Cancer); settings: Homo sapiens
SF-268 = assay: as above; settings: Homo sapiens
HS 578T = assay: panel of 60 human tumor cell lines, growth inhibition (Breast Cancer); settings: Homo sapiens, Hs-578T

C=C1C(=O)O[C@H]2[C@H]1CC/C(COC(=O)NCCN1CCCC1)=C\CC[C@@]1(C)O[C@@H]21 [JVM 59, ((1aR,7aS,10aS,10bS,E)-1a-methyl-8-methylene-9-oxo-1a,2,3,6,7,7a,8,9,10a,10b-decahydrooxireno[2′,3′:9,10]cyclodeca[1,2-b]furan-5-yl)methyl-(2-(pyrrolidin-1-yl)ethyl)carbamate]
GI50 (OVCAR-3; Homo sapiens, OVCAR-3): 8.41 µM
CC50 (OVCAR-3; Homo sapiens, OVCAR-3, read-out: LC50): 46.4 µM
IC (TGI) (OVCAR-3; Homo sapiens, OVCAR-3, read-out: TGI): 20.8 µM
Percent Growth (OVCAR-3; OVCAR-3, Log10 Concentration −4.0): −98%
Percent Growth (OVCAR-3; OVCAR-3, Log10 Concentration −5.0): 46%
Percent Growth (OVCAR-3; OVCAR-3, Log10 Concentration −6.0): 102%
Percent Growth (OVCAR-3; OVCAR-3, Log10 Concentration −7.0): 100%
Percent Growth (OVCAR-3; OVCAR-3, Log10 Concentration −8.0): 101%
GI50 (K-562; Homo sapiens, K562): 3.26 µM
CC50 (K-562; Homo sapiens, K562, read-out: LC50): > 100 µM
TGI (K-562; K-562, five dose): 1.86E−5
Percent Growth (K-562; Log10 Concentration −4.0): −36%
Percent Growth (K-562; Log10 Concentration −5.0): 13%
Percent Growth (K-562; Log10 Concentration −6.0): 89%
Percent Growth (K-562; Log10 Concentration −7.0): 79%
Percent Growth (K-562; Log10 Concentration −8.0): 87%
GI50 (HCT-116; HCT-116, HCT-116, five dose): 3.18 µM
GI50 (HCT-116; HCT-116, HCT-116, 5-dose assay): 3.18 µM
CC50 (HCT-116; HCT-116, read-out: LC50): 38.2 µM
IC (TGI) (HCT-116; HCT-116, read-out: TGI): 12.7 µM
GI50 (BT-549; BT-549): 4.75 µM
CC50 (BT-549; BT-549, read-out: LC50): 45 µM
IC (TGI) (BT-549; BT-549, read-out: TGI): 18.6 µM
GI50 (NCI-H322M): 73.9 µM
CC50 (NCI-H322M; read-out: LC50): > 100 µM
IC (TGI) (NCI-H322M; read-out: TGI): > 100 µM
GI50 (SNB-75; SNB-75): 18 µM
CC50 (SNB-75; SNB-75, read-out: LC50): > 100 µM
IC (TGI) (SNB-75; SNB-75, read-out: TGI): 79.3 µM
GI50 (T-47D): 4.86 µM
CC50 (T-47D; read-out: LC50): 63.8 µM
IC (TGI) (T-47D; read-out: TGI): 19.2 µM
GI50 (TK-10; TK-10, TK-10, five dose): 3.11 µM
GI50 (TK-10; TK-10, TK-10, 5-dose assay): 3.11 µM
CC50 (TK-10; TK-10, read-out: LC50): 40.2 µM
IC (TGI) (TK-10; TK-10, read-out: TGI): 14.1 µM
GI50 (A549/ATCC; A549): 27.6 µM
CC50 (A549/ATCC; A549, read-out: LC50): > 100 µM
IC (TGI) (A549/ATCC; A549, read-out: TGI): 96.5 µM
GI50 (SW-620; SW-620, SW-620, five dose): 3.46 µM
GI50 (SW-620; SW-620, SW-620, 5-dose assay): 3.46 µM
CC50 (SW-620; SW-620, read-out: LC50): 47.2 µM
IC (TGI) (SW-620; SW-620, read-out: TGI): 13.8 µM
GI50 (OVCAR-5; Homo sapiens, OVCAR-5): 13.5 µM
CC50 (OVCAR-5; Homo sapiens, OVCAR-5, read-out: LC50): 59.3 µM
IC (TGI) (OVCAR-5; Homo sapiens, OVCAR-5, read-out: TGI): 28.3 µM
Percent Growth (OVCAR-5; OVCAR-5, Log10 Concentration −7.0): 9B
GI50 (HCT-15; HCT-15): 13.5 µM
CC50 (HCT-15; HCT-15, read-out: LC50): 91.2 µM
IC (TGI) (HCT-15; HCT-15, read-out: TGI): 35.1 µM
GI50 (NCI-H522; NCI-H522): 1.78 µM
CC50 (NCI-H522; NCI-H522, read-out: LC50): 32.2 µM
IC (TGI) (NCI-H522; NCI-H522, read-out: TGI): 5.05 µM
Percent Growth (HT29; Log10 Concentration −4.0): −76%
Percent Growth (HT29; Log10 Concentration −5.0): 59%
Percent Growth (HT29; Log10 Concentration −6.0): 99%
Percent Growth (HT29; Log10 Concentration −7.0): 101%
Percent Growth (HT29; Log10 Concentration −8.0): 98%
GI50 (HT29; Homo sapiens, HT-29): 11.7 µM
CC50 (HT29; Homo sapiens, HT-29, read-out: LC50): 64.4 µM
IC (TGI) (HT29; Homo sapiens, HT-29, read-out: TGI): 27.4 µM
GI50 (SF-295; SF-295): 48.8 µM
CC50 (SF-295; SF-295, read-out: LC50): > 100 µM
IC (TGI) (SF-295; SF-295, read-out: TGI): > 100 µM
GI50 (SF-268; SF-268): 14.7 µM
CC50 (SF-268; SF-268, read-out: LC50): 60.8 µM
IC (TGI) (SF-268; SF-268, read-out: TGI): 30 µM
GI50 (HS 578T): 19.7 µM
CC50 (HS 578T; read-out: LC50): > 100 µM
IC (TGI) (HS 578T; read-out: TGI): 69 µM
